Tests used:
Format in all cases: cell-based, human
[1] = tested on: HLA I surface expression on MCC cell lines; assay: Flow cytometry for HLA-I surface expression (anti-HLA-ABC, W6/32) in MCC lines at baseline and after interferon or MEK inhibitor treatment
Method: The overlaid black line plot indicates the percentage of tumor cells that stained positive for HLA-I by IHC of the corresponding original tumor (right y-axis).
Representative histogram plots show cells stained with anti-HLA class I or isotype antibodies. The experiment was performed in the MCPyV− line MCC-290 (left) and the MCPyV+ line MCC-301 (right).
Cells were dissociated with Versene and incubated with 5 μL Human TruStain FcX (Fc receptor blocking solution; Biolegend, Dedham, Mass.) per million cells in […] at room temperature for 10 min. Fluorochrome-conjugated antibodies or respective isotype controls were immediately added and incubated for another 30 min at 4° C. Cells were then washed once with PBS and resuspended in PBS containing 4% paraformaldehyde and analyzed on LSR Fortessa cytometers. Additional steps were described for individual experiments as below.

[2] = tested on: HLA-DR; assay: IFN-γ treatment, HLA-DR by flow cytometry; conditions: MCC-301 cell line
Method: Cells were dissociated with Versene and incubated with 5 μL Human TruStain FcX (Fc Receptor Blocking Solution; Biolegend #422302) per million cells in 100 μL at room temperature for 10 min. Fluorophore-conjugated antibodies or respective isotype controls were added and incubated for another 30 min at 4° C. Cells were then washed once with PBS and resuspended in PBS or 4% paraformaldehyde and analyzed on an LSR Fortessa cytometer. For HLA-I and HLA-II detection, the following antibodies were used: HLA-ABC (W6/32 clone) conjugated to PE (BioLegend #311406), APC (BioLegend #311410), or AF647 (Santa Cruz Biotechnology #sc32235 AF647), and HLA-DR-FITC (BioLegend #307604).

[3] = tested on: HLA-I and IFN pathway proteins; assay: Whole proteome analysis of MCC cell lines with and without IFN-γ
Method: Protein expression of MCC cell lines was assessed. Briefly, cell pellets of MCC cell lines with and without IFN-γ treatment were lysed in 8M Urea and digested to peptides using LysC and Trypsin (Promega). 400 μg peptides were labeled with TMT10 reagents (Thermo Fisher, 126-MCC-290, 127N-MCC-350_IFN, 127C MCC-275_IFN, 128N MCC-275, 128C MCC-350, 129N_MCC-301_IFN, 129C-MCC-277_IFN, 130N-MCC-290_IFNy, 130C MCC-277, 131 MCC-301) and then pooled for subsequent fractionation and analysis. Pooled peptides were separated into 24 fractions using offline high pH reversed phase fractionation. 1 μg per fraction was loaded onto an analytical column (20-30 cm with 1.9 μm C18 Reprosil beads [Dr. Maisch HPLC GmbH], packed in-house, PicoFrit 75 μM inner diameter, 10 μM emitter [New Objective]). Peptides were eluted with a linear gradient (EasyNanoLC 1000 or 1200, Thermo Scientific) ranging from 6-30% Buffer B (either 0.1% formic acid or 0.5% AcOH and 80% or 90% acetonitrile) over 84 min 30-90% Buffer B over 9 min, and held at 90% Buffer B for 5 min at 200 nl/min. During data dependent acquisition, peptides were analyzed on a Fusion Lumos (Thermo Scientific). Full scan MS was acquired at a 60,000 from 300-1,800 m/z. AGC target was set to 4e5 and 50 ms. […]

Substance | HLA I surface expression, median fold increase by MFI ([1]; IFN-y exposure, the 8 inducible of 11 MCC lines, pan-class I anti-HLA-ABC antibody, median) | HLA I surface expression, range of fold increase by MFI ([1]; IFN-y exposure, the 8 inducible of 11 MCC lines, range) | HLA I surface expression response ([1]; three lines: MCC-336, -350, -358) | HLA-DR expression [2] | class I upregulation in matched proteomes ([3]; 4 MCC lines) | HLA-I and IFN pathway upregulation at the protein level ([3]; MCC-350 (non-IFN-γ-responsive), including STAT1 phosphorylation)
IFN-y: type II interferon, recombinant human, used to treat MCC cells | 5.7 fold | 2.5-12.4 fold | not responsive |  |  | 
IFN-γ: interferon gamma used to stimulate MCC cell lines |  |  |  | upregulated | confirmed | global lack of IFN-induced HLA-I and IFN pathway upregulation

— US20230203485A1, “METHODS FOR MODULATING MHC-I EXPRESSION AND IMMUNOTHERAPY USES THEREOF” (Dana-Farber Cancer Institute, Inc., priority 2020, published 2023)
